We go through 31 compounds from US9434711B2 (Janssen Pharmaceutica, NV, priority 2007, dated 2016).

Read-outs that look alike come from different tables or passages of the source.

In this assay the target is canine TRPM8 (Canis lupus familiaris, UniProt Q1A7N1). The assay is described as follows: In Vitro Canine TRPM8 Functional Assay (Ca2+ fluorescence, icilin activation). In kind it is cell-based. Conditions: for inhibition at 0.2 µM: read-out: % Inh @ 0.2; for IC50: read-out: IC50; for inhibition at 0.5 µM: compound at 0.5 μM, read-out: % Inh @ 0.5. The gist of the method: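 Canine TRPM8 stably expressed in HEK293; compound added 5 min before icilin challenge (~80% max response), with fluorescent Ca2+ signal tracked throughout.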
Chain of canine TRPM8 (Q1A7N1 1-1104): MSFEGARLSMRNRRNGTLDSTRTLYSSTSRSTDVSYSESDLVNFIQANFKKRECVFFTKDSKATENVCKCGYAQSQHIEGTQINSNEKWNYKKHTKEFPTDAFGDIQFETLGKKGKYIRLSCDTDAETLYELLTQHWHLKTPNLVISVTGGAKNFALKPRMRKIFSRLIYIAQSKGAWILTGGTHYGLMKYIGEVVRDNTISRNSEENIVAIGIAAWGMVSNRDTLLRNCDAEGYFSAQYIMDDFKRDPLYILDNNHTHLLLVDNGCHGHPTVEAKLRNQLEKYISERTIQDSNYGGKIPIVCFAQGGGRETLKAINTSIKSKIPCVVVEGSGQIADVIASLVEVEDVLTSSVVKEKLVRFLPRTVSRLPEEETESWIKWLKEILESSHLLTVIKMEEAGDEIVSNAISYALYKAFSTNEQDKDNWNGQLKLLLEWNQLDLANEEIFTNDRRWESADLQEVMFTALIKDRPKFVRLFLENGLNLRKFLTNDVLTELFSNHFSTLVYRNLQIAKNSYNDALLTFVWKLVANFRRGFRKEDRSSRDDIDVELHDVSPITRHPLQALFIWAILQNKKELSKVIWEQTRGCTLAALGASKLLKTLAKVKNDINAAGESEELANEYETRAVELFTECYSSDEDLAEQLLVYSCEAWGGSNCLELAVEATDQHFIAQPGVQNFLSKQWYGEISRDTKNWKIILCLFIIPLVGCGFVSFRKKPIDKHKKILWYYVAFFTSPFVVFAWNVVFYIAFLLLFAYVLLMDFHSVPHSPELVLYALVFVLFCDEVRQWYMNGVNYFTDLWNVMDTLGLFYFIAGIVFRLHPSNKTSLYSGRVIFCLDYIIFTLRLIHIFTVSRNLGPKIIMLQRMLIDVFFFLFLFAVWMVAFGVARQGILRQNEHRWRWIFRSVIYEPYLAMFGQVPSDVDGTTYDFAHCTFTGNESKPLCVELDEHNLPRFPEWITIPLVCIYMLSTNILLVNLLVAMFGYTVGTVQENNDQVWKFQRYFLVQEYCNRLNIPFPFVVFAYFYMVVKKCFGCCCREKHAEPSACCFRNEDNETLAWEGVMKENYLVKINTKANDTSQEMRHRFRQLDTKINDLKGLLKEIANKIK

Where [1] appears, read: 0.2 μM compound, HEK293 cells stably expressing canine TRPM8, icilin activation.
Where [2] appears, read: HEK293 cells stably expressing canine TRPM8, icilin activation, eight-point dose-response.
The mark [3] stands for this setting: compound at 0.2 μM, canine TRPM8, icilin activation.
Setting [4] is: HEK293 cells stably expressing canine TRPM8, icilin activation, average of two or more determinations.
[5] abbreviates: canine TRPM8, icilin activation.

In the case of `Cc1c(N(Cc2ccccc2)S(=O)(=O)c2ccc(OCc3ccccc3)c(F)c2)sc2ccccc12` [Compound 846, N-(Benzyl)-4-benzyloxy-3-fluoro-N-(3-methyl-benzo[b]thiophen-2-yl)-benzenesulfonamide], the inhibition at 0.2 µM under setting [1] was 28%.

For `O=C(O)c1ccc(S(=O)(=O)N(CC23CC4CC(CC(C4)C2)C3)c2sc3ccccc3c2Br)cc1` [Compound 278, N-(3-Bromo-benzo[b]thiophen-2-yl)-N-(adamant-1-yl-methyl)-4-carboxy-benzenesulfonamide], the IC50 under setting [2] amounted to 0.001 µM. For the same compound, the inhibition at 0.2 µM under setting [3] is 98%. Regarding `Cc1c(N(Cc2ccccc2)S(=O)(=O)c2ccc(F)c(F)c2)sc2ccccc12` [Compound 825, N-(Benzyl)-N-(3-methyl-benzo[b]thiophen-2-yl)-3,4-difluoro-benzenesulfonamide], the inhibition at 0.2 µM under setting [1] is 89%. The IC50 under setting [4] came out at 0.025 µM. For `Cc1c(N(Cc2ccc(F)c(C(F)(F)F)c2)S(=O)(=O)c2ccc3[nH]c(=O)oc3c2)sc2ccccc12` [Compound 66, N-(4-Fluoro-3-trifluoromethyl-benzyl)-N-(3-methyl-benzo[b]thiophen-2-yl)-2-oxo-2,3-dihydro-benzooxazole-6-sulfonamide], the IC50 under setting [2] was found to be 0.004 µM. The inhibition at 0.2 µM under setting [3] turned out to be 96%. Taken in the same sequence, the figures for `O=S(=O)(c1cccc(-c2nnn[nH]2)c1)N(Cc1ccc(F)c(C(F)(F)F)c1)c1sc2ccccc2c1Br` [Compound 576, N-(3-Bromo-benzo[b]thiophen-2-yl)-N-(4-fluoro-3-trifluoromethyl-benzyl)-3-(1H-tetrazol-5-yl)-benzenesulfonamide] were 0.0191 µM and 100%. Taken in the same sequence, the figures for `CN(C)Cc1c(N(Cc2ccc(F)c(C(F)(F)F)c2)S(=O)(=O)c2ccccc2)sc2ccccc12` [Compound 418, N-(3-Dimethylaminomethyl-benzo[b]thiophen-2-yl)-N-(4-fluoro-3-trifluoromethyl-benzyl)-benzenesulfonamide] were 0.069 µM and 90%. On to `CCS(=O)(=O)N(Cc1ccc(F)c(OC)c1)c1cc2ccccc2s1` [Compound 828, N-(Benzo[b]thiophen-2-yl)-N-(4-fluoro-3-methoxy-benzyl)-ethanesulfonamide], for which, under setting [1], the inhibition at 0.2 µM came to 88%. In addition, under setting [4], the IC50 came to 0.0427 µM. Take `O=S(=O)(c1ccccc1)N(Cc1ccc(F)c(C(F)(F)F)c1)c1sc2ncccc2c1Cl` [Compound 813, N-(3-Chloro-thieno[2,3-b]pyridin-2-yl)-N-(4-fluoro-3-trifluoromethyl-benzyl)-benzenesulfonamide]: under setting [1], the inhibition at 0.2 µM is 90%. Besides, the 50% inhibitory concentration (IC50) under setting [4] stood at 0.028 µM. Turning to `COc1cc(NS(C)(=O)=O)ccc1S(=O)(=O)N(Cc1ccc(F)c(C(F)(F)F)c1)c1cc2ccccc2s1` [Compound 743, N-(Benzo[b]thiophen-2-yl)-N-(4-fluoro-3-trifluoromethyl-benzyl)-4-methanesulfonylamino-2-methoxy-benzenesulfonamide], the inhibition at 0.2 µM under setting [3] turned out to be 32%. Take `CCCCN(c1sc2ccccc2c1C(C)O)S(=O)(=O)CC` (stereo not drawn) [Compound 280, N-(Butyl)-N-[3-(1-hydroxy-ethyl)-benzo[b]thiophen-2-yl]-ethanesulfonamide]: the inhibition at 0.2 µM under setting [3] turned out to be 87%. On to `Cc1c(N(CCCCC(F)(F)F)S(=O)(=O)c2ccc(N3CCOCC3)nc2)sc2ccccc12` [Compound 788], for which the inhibition at 0.2 µM under setting [3] was found to be 100%. As for `O=c1[nH]c(-c2ccc(S(=O)(=O)N(CCCCC(F)(F)F)c3sc4ccccc4c3Br)cc2)no1` [Compound 583, N-(3-Bromo-benzo[b]thiophen-2-yl)-N-(5,5,5-trifluoro-pentyl)-4-(5-oxo-4,5-dihydro-[1,2,4]oxadiazol-3-yl)-benzenesulfonamide], the inhibition at 0.2 µM under setting [3] is 100%. Turning to `O=S(=O)(c1ccccc1)N(CCN1CCCCC1)c1sc2ccccc2c1Br` [Compound 256, N-(3-Bromo-benzo[b]thiophen-2-yl)-N-(2-piperidin-1-yl-ethyl)-benzenesulfonamide], under setting [2], the IC50 is 0.03 µM. For the same compound, under setting [3], the inhibition at 0.2 µM was found to be 87%. On to `O=C(O)c1ccc(S(=O)(=O)N(CCC(F)(F)F)c2sc3ccccc3c2Cl)cc1` [Compound 480, N-(3-Chloro-benzo[b]thiophen-2-yl)-N-(3,3,3-trifluoro-propyl)-4-carboxy-benzenesulfonamide], for which, under setting [2], the IC50 amounted to 0.013 µM. Besides, under setting [3], the inhibition at 0.2 µM was 100%.

On to `O=S(=O)(c1ccccc1)N(CCF)c1cc2ccccc2s1` [Compound 844, N-(Benzo[b]thiophen-2-yl)-N-(2-fluoro-ethyl)-benzenesulfonamide], for which the inhibition at 0.2 µM under setting [1] is 31%. For the compound `CCCCN(c1cc2ccccc2s1)S(=O)(=O)c1ccc(N2CCCC2)cc1` [Compound 445, N-(Benzo[b]thiophen-2-yl)-N-(butyl)-4-pyrrolidin-1-yl-benzenesulfonamide], the inhibition at 0.2 µM under setting [3] is 58%. For `O=S(=O)(c1ccccc1)N(Cc1ccc(F)c(F)c1)c1cc2ccccc2s1` [Compound 1, N-Benzo[b]thiophen-2-yl-N-(3,4-difluoro-benzyl)-benzenesulfonamide], under setting [2], the IC50 stood at 0.024 µM. The inhibition at 0.5 µM under setting [5] came out at 100%. Turning to `O=S(=O)(c1ccc(-c2nnn[nH]2)cc1)N(CCC1CC1)c1cc2ccccc2s1` [Compound 569, N-(Benzo[b]thiophen-2-yl)-N-(2-cyclopropyl-ethyl)-4-(1H-tetrazol-5-yl)-benzenesulfonamide], the IC50 under setting [2] worked out at 0.035 µM. Further, the inhibition at 0.2 µM under setting [3] worked out at 88%. For `COC(=O)CS(=O)(=O)N(Cc1ccc(OC(F)(F)F)cc1)c1sc2ccccc2c1C` [Compound 761, N-(3-Methyl-benzo[b]thiophen-2-yl)-N-(4-trifluoromethoxy-benzyl)-carbomethoxy-methanesulfonamide], in that order: 0.04 µM and 79%.

In the case of `O=S(=O)(c1cnccc1Cl)N(Cc1ccc(F)c(C(F)(F)F)c1)c1sc2ccccc2c1Cl` [Compound 338, N-(3-Chloro-benzo[b]thiophen-2-yl)-N-(4-fluoro-3-trifluoromethyl-benzyl)-4-chloro-pyridin-3-ylsulfonamide], under setting [2], the IC50 came out at 0.029 µM. On to `O=S(=O)(c1ccc(Br)cc1)N(CCC1CC1)c1cc2ccccc2s1` [Compound 654, N-(Benzo[b]thiophen-2-yl)-N-(2-cyclopropyl-ethyl)-4-bromo-benzenesulfonamide], for which the inhibition at 0.2 µM under setting [3] came out at 56%.

As to `CNC(=O)c1c(N(Cc2ccc(F)c(C(F)(F)F)c2)S(=O)(=O)c2ccccc2)sc2ccccc12` [Compound 458, N-(3-Methyl-carbamoyl-benzo[b]thiophen-2-yl)-N-(4-fluoro-3-trifluoromethyl-benzyl)-benzenesulfonamide], under setting [2], the IC50 turned out to be 0.012 µM. In addition, the “% Inh @ 0.2 (μM)” value under setting [3] was determined as 102%. As for `Nc1ccc(S(=O)(=O)N(CCCCC(F)(F)F)c2sc3ccccc3c2Cl)cc1Cl` [Compound 667, 4-Amino-3-chloro-N-(3-chloro-benzo[b]thiophen-2-yl)-N-(5,5,5-trifluoro-pentyl)-benzenesulfonamide], under setting [2], the IC50 was 0.0301 µM. For the same compound, the inhibition at 0.2 µM under setting [3] came out at 103%. For `Cc1c(N(CCCCC(F)(F)F)S(=O)(=O)c2ccc(C(=O)O)cc2F)sc2ccccc12` [Compound 591, N-(3-Methyl-benzo[b]thiophen-2-yl)-N-(5,5,5-trifluoro-pentyl)-2-fluoro-4-carboxy-benzenesulfonamide], the half-inhibitory concentration (IC50) under setting [2] was found to be 0.0042 µM. Also, the inhibition at 0.2 µM under setting [3] is 101%. `CC(C)(O)c1c(N(Cc2ccc(F)cc2)S(=O)(=O)c2ccc(Br)cc2)sc2ccccc12` [Compound 734, N-(4-Fluorobenzyl)-N-(3-(1-hydroxy-1-methyl-ethyl)-benzo[b]thiophen-2-yl)-4-bromo-benzenesulfonamide]: under setting [2], the half-inhibitory concentration (IC50) is 0.0097 µM. Besides, under setting [3], the inhibition at 0.2 µM amounted to 102%.

Turning to `CS(=O)(=O)CS(=O)(=O)N(Cc1ccc(F)c(C(F)(F)F)c1)c1cc2ccccc2s1` [Compound 362, N-(Benzo[b]thiophen-2-yl)-N-(4-fluoro-3-trifluoromethyl-benzyl)-C-methanesulfonyl-methanesulfonamide], under setting [3], the inhibition at 0.2 µM came out at 67%.

For the compound `Cc1c(N(Cc2ccc(F)c(F)c2)S(=O)(=O)c2ccccc2F)sc2ccccc12` [Compound 128, N-(3,4-Difluoro-benzyl)-N-(3-methyl-benzo[b]thiophen-2-yl)-2-fluoro-benzenesulfonamide], under setting [2], the half-inhibitory concentration (IC50) was 0.009 µM. The inhibition at 0.5 µM under setting [5] was 99%.

For `Cc1c(N(CCC2CC2)S(=O)(=O)c2ccc(N3CCNCC3)cc2)sc2ccccc12` [Compound 742, N-(3-Methyl-benzo[b]thiophen-2-yl)-N-(cyclopropyl-ethyl)-4-(piperazin-1-yl)-benzenesulfonamide], under setting [3], the inhibition at 0.2 µM amounted to 66%. For `COC(=O)c1ccc(S(=O)(=O)N(CCCF)c2cc3ccccc3s2)cc1` [Compound 842, N-(Benzo[b]thiophen-2-yl)-N-(3-fluoro-propyl)-4-carbomethoxy-benzenesulfonamide], under setting [1], the inhibition at 0.2 µM was determined as 63%. Regarding `Cc1c(N(CCC2CC2)S(=O)(=O)c2ccc(C(=O)N[C@@H]3CCNC3)cc2)sc2ccccc12` [Compound 783, (R)-4-[(2-Cyclopropyl-ethyl)-(3-methyl-benzo[b]thiophen-2-yl)-sulfamoyl]-N-pyrrolidin-3-yl-benzamide], under setting [3], the inhibition at 0.2 µM is 38%.

With `CC1=C(N(CCC2CC2)S(=O)(=O)c2ccc(C(=O)O)cc2)S(=O)(=O)c2ccccc21` [Compound 632, N-(2-Cyclopropyl-ethyl)-N-(3-methyl-1,1-dioxo-benzo[b]thiophen-2-yl)-4-carboxy-benzenesulfonamide], the inhibition at 0.2 µM under setting [3] was found to be 12%.

Broadly, the IC50 is the concentration that gives 50% inhibition.
